Assay results published in US20100316628A1, “AGENTS AND METHODS FOR TREATING RESPIRATORY DISORDERS” (THE GENERAL HOSPITAL CORPORATION, priority 2008, published 2010).
“Also recorded” adds a separate entry of the source.

Legend:
clear cells [1] = assay: In vivo luminal microperfusion of cauda epididymidis; quantification of V-ATPase apical membrane accumulation / microvilli elongation in clear cells; set-up: species or system rat; conditions: for effect on ANGII-induced V-ATPase apical accumulation and microvilli elongation: 10 min pre-treatment, then ANGII 20 min with agent present, PD123319 1 μM, losartan 1 μM, ODQ 3 μM, L-NAME 100 μM; for extension of V-ATPase-labeled microvilli versus control: mean±SEM
Description: (§1) Rats were anesthetized and the cauda epididymidis was luminally perfused in vivo, harvested and fixed in PLP, as described previously (Beaulieu et al., 2005; Pastor-Soler et al., 2003; Wong and Yeung, 1978).
Immunofluorescence labeling was performed on cryostat sections, as described previously (Beaulieu et al., 2005; Pastor-Soler et al., 2003). Primary antibodies, the AGTR2 peptide and secondary antibodies used are listed in supplementary material. Slides were mounted in Vectashield (Vector Labs, Burlingame, Calif.) with or without DAPI. For confocal microscopy, nuclei were stained using TOPRO-3 iodide (Invitrogen, Carlsbad, Calif.). Immunostained sections were examined using a Nikon E800 microscope (Nikon Instruments, Melville, N.Y.). Digital images were acquired with IPLab Spectrum software (Scanalytics, Fairfax, Va.) and imported into Adobe Photoshop. Sections were also examined using a […] confocal microscope (Zeiss Laboratories). Z-series (0.1-μm interval) were imported into Volocity software (Improvision Inc., version 4.1) for 3D reconstruction and final animations were exported as Quicktime movies.
The level of accumulation of V-ATPase in clear cell microvilli was quantified using IPLab software as described previously (Beaulieu et al., 2005; Pastor-Soler et al., 2003). 10 μm sections of microperfused cauda epididymidis were immunostained under identical conditions, and confocal images were acquired using the same parameters. The segmentation procedure of IPLab was used to measure the area of V-ATPase-positive microvilli, which was normalized against the length of apical pole of each cell (Beaulieu et al., 2005; Pastor-Soler et al., 2003). At least three epididymides from different animals were perfused for each condition, and a minimum of 10 cells/tissue were examined for a total of at least 30 cells/condition.

proximal VD = assay: Detection of proton secretion in cut-open proximal VD with a self-referencing proton-selective electrode; set-up: species or system rat; conditions: for proton secretion (effect of the added agent): ANGII 1 μM added to the bath, then concanamycin A 1 μM
Description: The proximal VD was cut open to expose the apical surface of the epithelium and anchored onto a custom-made chamber. Proton secretion was measured using a self-referencing proton-selective electrode, as described previously (Beaulieu et al., 2005; Breton et al., 1996; Smith et al., 2007).

clear cells [2] = assay: Immunogold electron microscopy and quantification of V-ATPase gold labeling in clear cells of perfused epididymis; type: in vivo, rat; conditions: luminal ANGII 1 μM vs control
Description: as §1
Pieces of PLP-fixed epididymis were embedded at −45° C. using HM20 resin (Electron Microscopy Sciences, Hatfield, Pa.) in a Leica EM AFS, and ultrathin sections were cut, as described previously (Da Silva et al., 2007; Pastor-Soler et al., 2003). Sections were immunostained for the V-ATPase A subunit, followed by goat anti-rabbit IgG coupled to 15 nm gold (Ted Pella, Reading, Calif.). Grids were examined in a JEOL 1011 electron microscope. Images were acquired using an AMT digital imaging system.
The number of V-ATPase associated gold particles on the apical membrane and microvilli was counted for each clear cell (Da Silva et al., 2007; Pastor-Soler et al., 2003). To determine the density of V-ATPase molecules along the apical membrane, the number of gold particles was divided by the length of apical membrane, including microvilli, of each cell. This value is referred to as “gold/μm apical membrane”. To determine the relative density of the V-ATPase at the cell surface, the number of gold particles was normalized for the width of the cell, measured at the base of the microvilli (gold/μm cell width).

Compound: CCCCc1nc(Cl)c(CO)n1Cc1ccc(-c2ccccc2-c2nn[nH]n2)cc1 [Losartan]
- effect on ANGII-induced V-ATPase apical accumulation and microvilli elongation (clear cells [1]): no inhibitory effect

Compound: Nc1nc2c(nc(Sc3ccc(Cl)cc3)n2[C@@H]2O[C@@H]3COP(=O)(O)O[C@H]3[C@H]2O)c(=O)[nH]1 [p-cpt-cGMP]
- elongation of V-ATPase-rich microvilli compared to control (clear cells [1]; 1 mM in luminal perfusate, 20 min): significant elongation; also recorded: marked elongation

Compound: C/C=C/[C@H]1O[C@@](O)([C@@H](C)[C@H](O)[C@H](C)[C@H]2OC(=O)/C(OC)=C/C(C)=C/[C@@H](C)[C@@H](O)[C@@H](CC)[C@@H](O)[C@H](C)C/C(C)=C/C=C/[C@@H]2OC)C[C@@H](O[C@H]2C[C@@H](O)[C@H](OC(N)=O)[C@@H](C)O2)[C@@H]1C [concanamycin A]
- proton secretion (effect of the added agent) (proximal VD): markedly inhibited; also recorded: marked inhibition
- effect of pre-incubation on the proton secretion response to ANGII (proximal VD; pre-incubation of the tissue for 10 min, data not shown): prevented the response to ANGII

Compound: O=c1onc2cnc3ccccc3n12 [ODQ]
- effect on ANGII-induced V-ATPase apical accumulation and microvilli elongation (clear cells [1]): completely abolished

Compound: angiotensin II (DRVYIHPF; Angiotensin-2; UniProt P01019 25-32, looked up) [ANGII, peptide hormone; agonist of AGTR1 and AGTR2 receptors]
- extension of V-ATPase-labeled microvilli versus control (clear cells [1]; ANGII 0.1 μM in luminal perfusate, 20 min): 141±4%
- extension of V-ATPase-labeled microvilli versus control (clear cells [1]; ANGII 1 μM in luminal perfusate, 20 min): 153±7%
- V-ATPase-labeled microvilli seen by immunogold labeling (clear cells [2]): longer and more numerous V-ATPase-labeled microvilli are detected
- density of V-ATPase molecules in microvilli (Gold/μm apical membrane) (clear cells [2]; P<0.0005): significant increase
- total number of V-ATPase molecules located at the cell surface (Gold/μm cell width) (clear cells [2]; P<0.0005): further amplified compared to control
- proton secretion (effect of the added agent) (proximal VD): sustained increase in proton secretion
- increase of concanamycin-sensitive proton secretion compared to control (proximal VD; ANGII 1 μM, measured 30 min after addition, n=7, P<0.05): 68%

Compound: Cc1cc(Cn2cnc3c2C[C@@H](C(=O)O)N(C(=O)C(c2ccccc2)c2ccccc2)C3)ccc1N(C)C [PD123319]
- effect on ANGII-induced V-ATPase apical accumulation and microvilli elongation (clear cells [1]): prevented the stimulatory effect of ANGII; also recorded: inhibited the effect of ANGII at both 0.1 and 1 μM concentrations
